From patent US20100077512A1 (priority 2006, published 2010)

Key:
[1] = system: tobacco budworm (Heliothis virescens); settings: 2500 ppm, eggs sprayed, 6 days
Procedure: 15 to 25 eggs were placed into microtiterplates filled with diet. The eggs were sprayed with 10 μl of the test solution, the plates were sealed with pierced foils and kept at 27-29° C. and 75-85% humidity under fluorescent light for 6 days. Mortality was assessed on the basis of the agility and of comparative feeding of the hatched larvae. Tests were replicated 2 times.

[2] = system: Mediterranean fruitfly (Ceratitis capitata); settings: 2500 ppm, eggs sprayed, 6 days

Question: For `N#Cc1ccc(-c2ccc(S(=O)(=O)NCc3ccnnc3)cc2)cc1` [Example 11], which mortality [1] is on record?
Answer: at least 75%

Question: For `O=S(=O)(NCc1ccnnc1)c1cc(Br)cs1`, which melting point is on record?
Answer: 120 to 122 °C

Question: For `O=S(=O)(NCc1ccnnc1)c1ccc(-c2ccc(Cl)cc2)nc1` [Example 60], which mortality [2] is on record?
Answer: at least 75%
